The source made the active and inactive calls. The rule behind the calls is not given here.
How the values were obtained:
Mus musculus [1] = assay: Toxicity in BALB/c albino mouse infected with blood trypomastigote stage of Trypanosoma cruzi assessed as decrease in alkaline phosphatase level in serum at 40 mg/kg, ip administered on day 7 to 12 post-infection measured after day 150 relative to control; type: organism-based; design: dose 40 mg/kg, route intraperitoneal; scale not given: the % may be the effect or the level left; conditions: in vivo
Mus musculus [2] = assay: Toxicity in BALB/c albino mouse infected with blood trypomastigote stage of Trypanosoma cruzi assessed as decrease in alkaline phosphatase level in serum at 25 mg/kg, ip administered on day 7 to 12 post-infection measured after day 120 relative to control; type: organism-based; design: dose 25 mg/kg, route intraperitoneal; scale not given: the % may be the effect or the level left; conditions: in vivo
Mus musculus [3] = assay: Toxicity in BALB/c albino mouse infected with blood trypomastigote stage of Trypanosoma cruzi assessed as change in ALT/GPT level in serum at 500 mg/kg, ip relative to control; type: organism-based; design: dose 500 mg/kg, route intraperitoneal; conditions: in vivo
Mus musculus [4] = assay: Toxicity in BALB/c albino mouse infected with blood trypomastigote stage of Trypanosoma cruzi assessed as decrease in ALT/GPT level in serum at 40 mg/kg, ip administered on day 7 to 12 post-infection measured after day 150 relative to control; type: organism-based; design: dose 40 mg/kg, route intraperitoneal; scale not given: the % may be the effect or the level left; conditions: in vivo
Mus musculus [5] = assay: Toxicity in BALB/c albino mouse infected with blood trypomastigote stage of Trypanosoma cruzi assessed as change in ALT/GPT level in serum at 25 mg/kg, ip administered on day 7 to 12 post-infection measured after day 120 relative to control; type: organism-based; design: dose 25 mg/kg, route intraperitoneal; conditions: in vivo
Mus musculus [6] = assay: Toxicity in BALB/c albino mouse infected with blood trypomastigote stage of Trypanosoma cruzi assessed as change in AST/GOT level in serum at 500 mg/kg, ip relative to control; type: organism-based; design: dose 500 mg/kg, route intraperitoneal; conditions: in vivo
Mus musculus [7] = assay: Toxicity in BALB/c albino mouse infected with blood trypomastigote stage of Trypanosoma cruzi assessed as increase in AST/GOT level in serum at 40 mg/kg, ip administered on day 7 to 12 post-infection measured after day 150 relative to control; type: organism-based; design: dose 40 mg/kg, route intraperitoneal; conditions: in vivo
Mus musculus [8] = assay: Toxicity in BALB/c albino mouse infected with blood trypomastigote stage of Trypanosoma cruzi assessed as increase in AST/GOT level in serum at 25 mg/kg, ip administered on day 7 to 12 post-infection measured after day 120 relative to control; type: organism-based; design: dose 25 mg/kg, route intraperitoneal; conditions: in vivo
Mus musculus [9] = assay: Toxicity in BALB/c albino mouse infected with blood trypomastigote stage of Trypanosoma cruzi assessed as change in LDH level in serum at 500 mg/kg, ip relative to control; type: organism-based; design: dose 500 mg/kg, route intraperitoneal; conditions: in vivo
Mus musculus [10] = assay: Toxicity in BALB/c albino mouse infected with blood trypomastigote stage of Trypanosoma cruzi assessed as increase in LDH level in serum at 40 mg/kg, ip administered on day 7 to 12 post-infection measured after day 150 relative to control; type: organism-based; design: dose 40 mg/kg, route intraperitoneal; conditions: in vivo
Mus musculus [11] = assay: Toxicity in BALB/c albino mouse infected with blood trypomastigote stage of Trypanosoma cruzi assessed as increase in creatinephophokinase-MB level in serum at 500 mg/kg, ip relative to control; type: organism-based; design: dose 500 mg/kg, route intraperitoneal; conditions: in vivo
Mus musculus [12] = assay: Toxicity in BALB/c albino mouse infected with blood trypomastigote stage of Trypanosoma cruzi assessed as change in creatinephophokinase-MB level in serum at 40 mg/kg, ip administered on day 7 to 12 post-infection measured after day 150 relative to control; type: organism-based; design: dose 40 mg/kg, route intraperitoneal; conditions: in vivo
Mus musculus [13] = assay: Toxicity in BALB/c albino mouse infected with blood trypomastigote stage of Trypanosoma cruzi assessed as change in uric acid level in serum at 40 mg/kg, ip administered on day 7 to 12 post-infection measured after day 150 relative to control; type: organism-based; design: dose 40 mg/kg, route intraperitoneal; conditions: in vivo
Mus musculus [14] = assay: Toxicity in BALB/c albino mouse infected with blood trypomastigote stage of Trypanosoma cruzi assessed as increase in uric acid level in serum at 25 mg/kg, ip administered on day 7 to 12 post-infection measured after day 120 relative to control; type: organism-based; design: dose 25 mg/kg, route intraperitoneal; conditions: in vivo
Mus musculus [15] = assay: Toxicity in BALB/c albino mouse infected with blood trypomastigote stage of Trypanosoma cruzi assessed as change in urea level in serum at 40 mg/kg, ip administered on day 7 to 12 post-infection measured after day 150 relative to control; type: organism-based; design: dose 40 mg/kg, route intraperitoneal; conditions: in vivo
Mus musculus [16] = assay: Toxicity in BALB/c albino mouse infected with blood trypomastigote stage of Trypanosoma cruzi assessed as change in urea level in serum at 25 mg/kg, ip administered on day 7 to 12 post-infection measured after day 120 relative to control; type: organism-based; design: dose 25 mg/kg, route intraperitoneal; conditions: in vivo
Trypanosoma cruzi [17] = assay: (§1) Trypanocidal activity against blood trypomastigote stage of Trypanosoma cruzi infected in immunosuppressed BALB/c albino mouse chronic chagas disease model assessed as increase in total Ig-G level at 40 mg/kg, ip administered on day 7 to 12 post-infection measured after day 150 by ELISA; type: functional, organism-based; design: dose 40 mg/kg
Trypanosoma cruzi [18] = assay: as §1, with “cyclophosphamide-induced reactivation of parasitemia” for “increase in total Ig-G level”, “(reference value: 98.1%)” for “by ELISA”; type: functional; conditions: route intraperitoneal
Mus musculus [19] = assay: Toxicity in BALB/c albino mouse assessed as mortality at 25 mg/kg, ip administered for 5 days; type: organism-based; design: dose 25 mg/kg, route intraperitoneal; conditions: in vivo, 120 h
Trypanosoma cruzi [20] = assay: Antitrypanosomal activity against trypomastigote stage of Trypanosoma cruzi IRHOD/CO/2008/SN3 assessed as reduction of trypomastigote number per mililiter of culture medium at IC25 preincubated for 12 hrs followed by compound washout measured every 48 hrs for 10 days by Neubauer hemocytometric chamber analysis relative to control; type: functional
Trypanosoma cruzi [21] = assay: Antitrypanosomal activity against amastigote stage of Trypanosoma cruzi IRHOD/CO/2008/SN3 infected in African green monkey Vero cells assessed as decrease in infection rate at IC25 preincubated for 12 hrs followed by compound washout measured every 48 hrs for 10 days by Neubauer hemocytometric chamber analysis relative to control; type: functional
[22] = Selectivity index, ratio of IC50 for African green monkey Vero cells to IC50 for amastigote stage of Trypanosoma cruzi IRHOD/CO/2008/SN3 infected in African green monkey Vero cells; type: toxicity, cell-based; conditions: read-out: Ratio IC50
[23] = Selectivity index, ratio of IC50 for African green monkey Vero cells to IC50 for epimastigote stage of Trypanosoma cruzi IRHOD/CO/2008/SN3; type: toxicity, cell-based; conditions: read-out: Ratio IC50
Vero = assay: Cytotoxicity against African green monkey Vero cells assessed as cell viability after 72 hrs by propidium iodide/fluorescein diacetate staining-based flow cytometric analysis; conditions: Chlorocebus sabaeus
Trypanosoma cruzi [24] = assay: Antitrypanosomal activity against epimastigote stage of Trypanosoma cruzi IRHOD/CO/2008/SN3 assessed as parasite growth inhibition after 72 hrs by Neubauer hemocytometric chamber analysis; type: functional, organism-based; conditions: IRHOD/CO/2008/SN3, 72 h
[25] = Dissociation constant, pKa of the compound in aqueous solution; type: physicochemical
Trypanosoma cruzi [26] = assay: Antitrypanosomal activity against epimastigote stage of Trypanosoma cruzi IRHOD/CO/2008/SN3 assessed as appearance of enormous reservosomes at IC25 after 72 hrs by TEM analysis; type: functional, organism-based
Trypanosoma cruzi [27] = assay: Antitrypanosomal activity against epimastigote stage of Trypanosoma cruzi IRHOD/CO/2008/SN3 assessed as appearance of swollen structure filled with empty vacuoles at IC25 after 72 hrs by TEM analysis; type: functional, organism-based
Trypanosoma cruzi [28] = assay: Antitrypanosomal activity against epimastigote stage of Trypanosoma cruzi IRHOD/CO/2008/SN3 assessed as change in excreted succinate level at IC25 after 96 hrs by 1H NMR analysis relative to control; type: functional
Trypanosoma cruzi [29] = assay: Antitrypanosomal activity against epimastigote stage of Trypanosoma cruzi IRHOD/CO/2008/SN3 assessed as change in excreted pyruvate level at IC25 after 96 hrs by 1H NMR analysis relative to control; type: functional
Trypanosoma cruzi [30] = assay: Antitrypanosomal activity against epimastigote stage of Trypanosoma cruzi IRHOD/CO/2008/SN3 assessed as change in excreted alanine level at IC25 after 96 hrs by 1H NMR analysis relative to control; type: functional

CCCCNc1c(N(C)CCCN(C)C)c(=O)c1=O
Activity (Mus musculus [1]): 30% | Activity (Mus musculus [2]): 10% | Activity (Mus musculus [3]): < 10% | Activity (Mus musculus [4]): 10% | Activity (Mus musculus [5]): < 10% | Activity (Mus musculus [6]): < 10% | Activity (Mus musculus [7]): 10% | Activity (Mus musculus [8]): 10% | Activity (Mus musculus [9]): < 10% | Activity (Mus musculus [10]): 10% | Activity (Mus musculus [11]): > 50% | Activity (Mus musculus [12]): < 10% | Activity (Mus musculus [13]): < 10% | Activity (Mus musculus [14]): 30% | Activity (Mus musculus [15]): < 10% | Activity (Mus musculus [16]): < 10% | Activity (Trypanosoma cruzi [17]): Active | Activity (Trypanosoma cruzi [18]): 3.1% | Activity (Mus musculus [19]): Non-toxic | inhibition (INH) (Trypanosoma cruzi [20]): 75% | inhibition (INH) (Trypanosoma cruzi [21]): 67% | selectivity ratio [22]: 53.3 | selectivity ratio [23]: 48.2 | IC50 (Vero): 453 µM | IC50 (Trypanosoma cruzi [24]): 9.4 µM | pKa [25]: 8.8 | Activity (Trypanosoma cruzi [26]): Active | Activity (Trypanosoma cruzi [27]): Active | Activity (Trypanosoma cruzi [28]): -26.9% | Activity (Trypanosoma cruzi [29]): 81.5% | Activity (Trypanosoma cruzi [30]): -18.5%

Source: ChEMBL document CHEMBL3124761, “Synthesis and biological evaluation of N,N'-squaramides with high in vivo efficacy and low toxicity: toward a low-cost drug against Chagas disease” (J Med Chem, 2014)
